In assay [1] the test system is scopolamine-induced amnesia. As to conditions: male ddY mice; single oral dose of 5000 nmol/kg weight (1300 μg/kg) 60 min before Y-shaped maze test; scopolamine 1 mg/kg s.c. 30 min before test.
Protocol: Water (control), scopolamine alone, or 500 nmol/kg weight or 5000 nmol/kg weight of FP together with scopolamine, was administered to mice, and their respective prophylactic effects against amnesia were evaluated in accordance with a method described in Example 1.
Male mice (n=15) of the ddY strain (approximately 7-week old) were used, and they took food and water ad lib. Test substances used were 500 mol/kg weight (130 μg/kg weight) or 5000 nmol/kg weight (1300 μg/kg weight) of FP. The test substances were administered to the mice once orally 60 minutes before the execution of a Y-shaped maze test for evaluation of spontaneous alternation behavior. […] The sequence of the arms each of the mice entered was recorded. The number of entries by each of the mice for each of the arms during the measurement time was counted to be the total number of entries. […] The percentage of spontaneous alternation behavior was calculated by dividing the number of spontaneous alternation behavior by a number obtained by subtracting 2 from the total number of entries, and multiplying a resultant number by 100. […] The measured values were expressed in the form of mean±standard error for each group. A significant difference between the control group and the scopolamine control group was calculated using Student's t-test. […]
Another assay addresses ACE (Homo sapiens, UniProt P12821). As to conditions: reported in reference 3; cited from earlier work.

Chain of ACE (P12821 30-1306, species assumed): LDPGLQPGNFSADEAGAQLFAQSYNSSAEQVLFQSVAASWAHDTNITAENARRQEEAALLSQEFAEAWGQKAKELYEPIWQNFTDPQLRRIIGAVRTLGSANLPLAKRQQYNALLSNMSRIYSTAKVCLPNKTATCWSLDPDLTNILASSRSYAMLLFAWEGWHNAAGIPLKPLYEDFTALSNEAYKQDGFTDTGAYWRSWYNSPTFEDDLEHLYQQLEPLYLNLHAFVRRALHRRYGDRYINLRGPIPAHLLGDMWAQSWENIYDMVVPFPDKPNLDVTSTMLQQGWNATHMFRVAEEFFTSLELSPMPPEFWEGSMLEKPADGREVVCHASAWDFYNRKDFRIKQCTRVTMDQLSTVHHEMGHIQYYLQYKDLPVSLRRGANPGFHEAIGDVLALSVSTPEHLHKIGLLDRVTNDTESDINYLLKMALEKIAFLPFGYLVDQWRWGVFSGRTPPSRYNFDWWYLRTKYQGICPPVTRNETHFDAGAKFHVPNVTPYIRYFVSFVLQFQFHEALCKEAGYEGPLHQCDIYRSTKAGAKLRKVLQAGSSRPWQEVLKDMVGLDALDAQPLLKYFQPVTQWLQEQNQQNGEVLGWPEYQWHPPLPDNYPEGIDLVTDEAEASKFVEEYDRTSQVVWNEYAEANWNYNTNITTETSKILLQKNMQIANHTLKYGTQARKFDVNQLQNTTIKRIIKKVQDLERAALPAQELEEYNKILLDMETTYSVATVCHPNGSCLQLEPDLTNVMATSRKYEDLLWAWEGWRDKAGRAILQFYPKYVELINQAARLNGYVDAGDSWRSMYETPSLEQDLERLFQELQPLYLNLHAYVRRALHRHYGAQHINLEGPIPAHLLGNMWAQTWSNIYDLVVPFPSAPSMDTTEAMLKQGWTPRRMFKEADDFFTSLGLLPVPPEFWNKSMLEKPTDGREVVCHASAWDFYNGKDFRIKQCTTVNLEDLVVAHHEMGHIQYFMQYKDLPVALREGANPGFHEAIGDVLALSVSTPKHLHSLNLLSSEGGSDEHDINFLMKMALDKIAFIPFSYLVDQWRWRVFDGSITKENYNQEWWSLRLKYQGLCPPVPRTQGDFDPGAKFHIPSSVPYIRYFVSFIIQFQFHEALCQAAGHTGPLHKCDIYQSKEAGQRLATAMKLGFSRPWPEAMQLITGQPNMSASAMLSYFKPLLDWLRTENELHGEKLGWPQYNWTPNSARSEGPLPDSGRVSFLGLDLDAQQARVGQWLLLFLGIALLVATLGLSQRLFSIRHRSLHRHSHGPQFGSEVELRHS

As for Phe-Pro, in assay [1], the “prophylactic activity against amnesia (percentage of spontaneous alternation behavior)” value is reported as “had a prophylactic activity against amnesia”. Besides, the “hypotensive lowering activity based on ACE inhibitory activity” value at ACE is recorded as “hypotensive lowering activity based on ACE inhibitory activity has been reported”.

(Values after US8895512B2, “Composition for improving brain function and method for improving brain function” (Calpis Co., Ltd., priority 2010, dated 2014).)
